Holding throughout (type): functional
For experiment [1], the species on record is Mus musculus. Description: Tumor initiating activity measured as number of papillomas on mouse skin at a dose of 50 nmol.
Experiment [2] is filed under the species Mus musculus. The experiment is described as follows: Tumor initiating activity measured as percentage of mice with papillomas at a dose of 50 nmol.
The species entered for experiment [3] is Mus musculus. Description: Tumor initiating activity measured as number of papillomas on mouse skin at a dose of 100 nmol.
Experiment [4] is filed under the species Mus musculus. The experiment is described as follows: Tumor initiating activity measured as percentage of mice with papillomas at a dose of 100 nmol.
Experiment [5] relates to Rattus norvegicus. The experiment is described as follows: Tumor initiating activity measured as incidence of % aberrent cells with chromosomal aberrations, at given dose of 50 mg/kg.
For experiment [6], the system named is Rattus norvegicus. Description: Tumor initiating activity measured as number of chromosomal aberrations per cell, at a dose of 50 mg/kg.
Experiment [7] is filed under the species Mus musculus. The experiment is described as follows: Tumor initiating activity measured as percentage of mice with papillomas at a dose of 200 nmol.
Experiment [8] is filed under the species Mus musculus. Description: Tumor initiating activity measured as number of papillomas on mouse skin at a dose of 200 nmol.
The subject of experiment [9] is Rattus norvegicus. Description: Tumor initiating activity measured as incidence of % aberrent cells with chromosomal aberrations, at given dose of 25 mg/kg.
The subject of experiment [10] is Rattus norvegicus. The experiment is described as follows: Tumor initiating activity measured as number of chromosomal aberrations per cell, at a dose of 25 mg/kg.
The test system of experiment [11] is Rattus norvegicus. Description: Tumor initiating activity measured as number of chromosomal aberrations per cell, at given dose 50 mg/kg.

Structures are written as SMILES.

In the experiment filed under Mus musculus [1], `Cc1c2cccc3c2c(c2ccc4ccccc4c12)CC3` had a papillomas per mouse of 14.7 papillomas/mouse. The molecule also yielded an Activity in the experiment filed under Mus musculus [2] of 100%.

With `Cc1c2cccc3c2c(c2ccc4c(O)c(O)ccc4c12)CC3`, the papillomas per mouse in the experiment filed under Mus musculus [1] amounted to 16.5 papillomas/mouse. Also, the Activity in the experiment listed under Mus musculus [2] turned out to be 100%.

As for `Cc1ccc2cc3c(ccc4c(O)c(O)ccc43)c3c2c1CC3`, in the experiment listed under Mus musculus [3], the papillomas per mouse was 7.7 papillomas/mouse. Besides, the Activity in the experiment listed under Mus musculus [4] worked out at 100%.

As for `Cc1c2ccccc2cc2c1ccc1c(O)c(O)ccc12`, the Activity in the experiment on Rattus norvegicus [5] was determined as 6.6%. The aberrations per cell in the experiment on Rattus norvegicus [6] was 0.07 aberrations/cell.

As for `Oc1ccc2c(ccc3cc4ccccc4cc32)c1O`, the Activity in the experiment on Rattus norvegicus [5] is reported as 2.2%. The same molecule returned an aberrations per cell in the experiment with Rattus norvegicus [6] of 0.02 aberrations/cell.

The molecule `Oc1ccc2c(ccc3c4c5c(cccc5cc32)CC4)c1O` gave an Activity in the experiment listed under Mus musculus [7] of 80%. In addition, the papillomas per mouse in the experiment listed under Mus musculus [8] was determined as 3.32 papillomas/mouse.

On to `Cc1c2ccccc2c(C)c2c1ccc1c(O)c(O)ccc12`, for which the Activity came to 22.2% with Rattus norvegicus [9] and 53% in the experiment on Rattus norvegicus [5]. Also, the figures for the aberrations per cell in the experiment on Rattus norvegicus [10] and in the experiment on Rattus norvegicus [11] were 0.31 aberrations/cell and 1.44 aberrations/cell, respectively.

In turn, `c1cc2c3c(c4ccc5ccccc5c4cc3c1)CC2` [CHOLANTHRENE] registered an Activity in the experiment listed under Mus musculus [7] of 93%. In the experiment listed under Mus musculus [8], this molecule gave a papillomas per mouse of 6.9 papillomas/mouse.

As for `Cc1ccc2cc3c(ccc4ccccc43)c3c2c1CC3` [3-METHYLCHOLANTHRENE], the papillomas per mouse in the experiment listed under Mus musculus [3] came to 7.13 papillomas/mouse. For the same molecule, in the experiment filed under Mus musculus [4], the Activity is listed as 97%.

`Cc1c2ccccc2cc2ccc3c(O)c(O)ccc3c12` came in with an Activity in the experiment on Rattus norvegicus [9] of 12.8%. The same molecule yielded an aberrations per cell in the experiment on Rattus norvegicus [10] of 0.17 aberrations/cell.

Source of the values: ChEMBL document CHEMBL1123943, “Biologically active dihydrodiol metabolites of polycyclic aromatic hydrocarbons structurally related to the potent carcinogenic hydrocarbon 7,12-dimethylbenz[a]anthracene” (1988).
